{"source": "patent US20250295628A1", "about": "(priority 2022, published 2025)", "key": {"[1]": {"test_system": "lead poisoning model rats", "assay": "Therapeutic effect on lead poisoning in SD rats (Example 22)", "type": "in vivo", "settings": "EDTA 93.5 mg/kg, 4 weeks", "procedure": "30 SD rats with a body weight of 180˜200 g were taken; rats in the blank group freely drank deionized water containing 12.5 μL acetic acid for 3 weeks.\nRats in all groups were administrated once a day for 5 days/week for a total of 4 weeks. Rats in the blank group and model group were administered by intravenous drip with normal saline, and rats in treating groups were administered with normal saline solution of the corresponding drug; the administration volume of all groups was the same, with a dripping rate of 30 drops/min for a time of about 1 h, 1 time/day, 5 days/week; the grouping and administration dose of rats are shown in Table 14."}, "[2]": {"test_system": "arsenic poisoning model rats", "assay": "Therapeutic effect on arsenic poisoning in Wistar rats (Example 23)", "type": "in vivo", "settings": "EDTA 93.5 mg/kg", "procedure": "60 Wistar rats with a body weight of 180˜200 g were taken; rats in a blank group freely drank deionized water for 3 months; rats in arsenic poisoning groups freely drank an aqueous solution containing 100 mg/L·As2O3 for continuous 3 months, with a water mount of 20 ml per day, equivalent to an oral dose of 10 mg/kg, resulting in arsenic poisoning of drinking water-type in rats.\nAfter successful molding, rats were divided to 10 rats in blank group and the remaining 50 rats. All groups were administrated once a day for 5 days/week for a total of 4 weeks. Rats in the blank group and the model group were administered by intravenous drip with normal saline, and rats in the treating group were administered with a normal saline solution of the corresponding drug; all groups had the same administration volume, a drip rate of 30 drops/min, and an dripping time of about 1 h, 1 time/d, 5 d/week, for a total of four weeks.\nUrine was collected on day 1 and day 26, arsenic excretion was measured; blood and kidney of rats were taken 24 hours after the 26th day of administration, and blood arsenic concentrations and renal arsenic concentrations were detected with ICPMS; the results are shown in Table 18."}, "[3]": {"test_system": "thallium poisoning model rats", "assay": "Therapeutic effect on thallium poisoning in Wistar rats (Example 24)", "type": "in vivo", "settings": "EDTA 93.5 mg/kg, 4 weeks", "procedure": "After successful molding, rats were divided to 10 rats in the blank group and the remaining 50 rats, and the grouping and administration dose are shown in Table 19. Rats in all groups were administrated once a day for 5 days/week for a total of 4 weeks.\nRats were sacrificed 24 h after administration on the last day; blood, kidney, brain and liver were taken, and thallium contents in these organs were detected by ICP-MS, and the test results are shown in Table 20."}, "[4]": {"test_system": "mixed chromium, cobalt, nickel and manganese poisoning model rabbits", "assay": "Therapeutic effect on mixed poisoning of chromium, cobalt, nickel and manganese in rabbits (Example 26)", "type": "in vivo, New Zealand rabbits", "settings": "EDTA 93.5 mg/kg, 3 days of treatment", "procedure": "40 New Zealand rabbits with a weight of 1.5˜2.0 kg were taken, and normal saline was injected intravenously at the ear margin of rabbits of the blank group for 5 days. A mixed solution containing 5 mg/ml CrCl3, 3 mg/ml CoCl2, 1 mg/ml NiCl2 and 2 mg/ml MnCl2 was injected intravenously at the ear margin of rabbits of poisoning groups with a dose of 2 ml/kg for 5 days, and observed for 25 days, thus resulting in mixed poisoning models of chromium, cobalt, nickel and manganese in New Zealand rabbits.\nAfter successful molding, there were 8 rabbits in the blank group and 24 rabbits in mixed poisoning groups. Rabbits in all groups were given once daily for 3 days. Rabbits in the blank group and the model group were administered by intravenous dripping with normal saline, and rabbits in the treating groups were administered with a normal saline solution containing the corresponding drug. The administration volume of all groups was the same, with a dripping rate of 30 drops/min, an administration time of about 2 h, 1 time/day for 3 days; the grouping and administration dose of New Zealand rabbit in different groups were shown in Table 21. 24-hour urine was collected every day for a total of 3 days, and the total amounts of chromium, cobalt, nickel and manganese excreted through urine during the 3 days were calculated, as shown in Table 22."}, "[5]": {"test_system": "rabbit VX2 liver tumor animal model", "assay": "Cisplatin plus composition 3-preparation in rabbit VX2 liver tumor model (Example 34)", "type": "in vivo, New Zealand rabbits", "settings": "cisplatin 4 mg/kg once a week alone, 4 weeks", "procedure": "SPF grade New Zealand rabbits, 4-8 weeks old, 1.8-2.2 kg, with a standard diet and free access to water, were kept in an environment of 12-hour light/dark cycle with a constant temperature of (23±2° C.) and a humidity of (55±15%). The animals were anesthetized, guided by ultrasound, and VX2 hepatoma cells were introduced into the liver by minimally invasive approach, After monitoring New Zealand rabbits for 14 days, and tumor size was monitored with ultrasound; rabbits were randomly divided into 4 groups of 10 animals in each group according to tumor size and body weight, and drug treatment was started on day 15. Rabbits in the control group were intravenously injected with 0.9% sodium chloride injection through the ear vein. […] All New Zealand rabbits were treated for 4 weeks.\nTumor volume was estimated using the formula V=π(a×b^2)/6, where a and b were the longest and shortest diameters of the tumor measured using calipers. The weights of rabbits were monitored every 3-4 days during the experiment, and rabbited were sacrificed at the end of treatment; blood was collected, AST, ALT and CREA were tested, and the results are shown in Table 30. After anesthetizing each rabbit with Sutai 50+ tachypnosis 0.1 ml/kg, carotid artery phlebotomy was used as a termination procedure."}}, "note": "Marks after values point to notes of the source that are not given here."}
{"molecule": "O=C(O)CN(CCN(CC(=O)O)CC(=O)O)CC(=O)O", "note": "[EDTA, ethylenediaminetetraacetate]", "values": [{"measurement": "Blood concentration of Ca2+", "setting": "[1]", "value": "89.31 ± 5.28", "unit": "µg/g"}, {"measurement": "Blood concentration of Cu2+", "setting": "[1]", "value": "754.21 ± 70.59", "unit": "µg/g"}, {"measurement": "Blood concentration of Fe3+", "setting": "[1]", "value": "194.72 ± 19.29", "unit": "µg/g"}, {"measurement": "Blood concentration of Mg2+", "setting": "[1]", "value": "43.61 ± 3.32", "unit": "µg/g"}, {"measurement": "Blood concentration of Zn2+", "setting": "[1]", "value": "2942.15 ± 176.08*^ΔΔ μg/g"}, {"measurement": "Lead in blood", "setting": "[1]", "value": "1218.69 ± 129.33", "unit": "µg/L"}, {"measurement": "Lead in kidney", "setting": "[1]", "value": "16.54 ± 4.67 ^ μg/g"}, {"measurement": "Lead in liver", "setting": "[1]", "value": "0.47 ± 0.28", "unit": "µg/g"}, {"measurement": "Total arsenic in urine on day 1", "setting": "[2]", "value": "3.27 ± 1.84", "unit": "µg"}, {"measurement": "Total arsenic in urine on day 26", "setting": "[2]", "value": "3.18 ± 1.35", "unit": "µg"}, {"measurement": "Arsenic in blood", "setting": "[2]; 24 hours after the 26th day", "value": "1362.98 ± 319.58", "unit": "µg/L"}, {"measurement": "Arsenic in kidney", "setting": "[2]; 24 hours after the 26th day", "value": "6.08 ± 2.35", "unit": "µg/g"}, {"measurement": "Thallium in blood", "setting": "[3]", "value": "836.69 ± 168.83", "unit": "µg/L"}, {"measurement": "Thallium in kidney", "setting": "[3]", "value": "12.54 ± 4.48", "unit": "µg/g"}, {"measurement": "Thallium in liver", "setting": "[3]", "value": "4.27 ± 2.18", "unit": "µg/g"}, {"measurement": "Chromium in urine, total excreted in 3 days", "setting": "[4]", "value": "178.48 ± 42.69", "unit": "µg"}, {"measurement": "Cobalt in urine, total excreted in 3 days", "setting": "[4]", "value": "162.28 ± 44.97 ^ μg"}, {"measurement": "Manganese in urine, total excreted in 3 days", "setting": "[4]", "value": "169.52 ± 32.63 ^ μg"}, {"measurement": "Nickel in urine, total excreted in 3 days", "setting": "[4]", "value": "188.28 ± 63.17 ^ μg"}]}
{"molecule": "N.N.[Cl][Pt][Cl]", "note": "[Cisplatin, cisplatin]", "values": [{"measurement": "ALT", "setting": "[5]", "value": "86.68 ± 26.88", "unit": "U/L"}, {"measurement": "AST", "setting": "[5]", "value": "89.20 ± 13.66", "unit": "U/L"}, {"measurement": "CREA", "setting": "[5]", "value": "470.35 ± 85.57", "unit": "µmol/L"}]}
